Results published in patent US8492510B2, “Multifunctional degradable nanoparticles with control over size and functionalities” (Vanderbilt University, priority 2007, dated 2013).

Test system: human microvascular endothelial cells (HMEC)
Test: Internalization into HMEC, temperature effect and control experiments (confocal microscopy)
Assay type: cell-based
Settings: 10 uM, 60 min, 37° C.
Procedure: The human microvascular endothelial cells (HMEC) cells were incubated with conjugates (10 uM) for 2.5 min at 4° C. or at 37° C.
The HMEC cells were incubated with conjugates (1 uM) for 30 min at 4° C. or at 37° C.
(b) The HMEC cells were incubated with Boc-protected guanidinylated FD-2 (10 uM) for 60 min at 37° C.
Internalization of FD-1 and FD-2 in mammalian cells was assessed using two different cell lines and a previously described method [Futaki, S.; Nakase, I.; Suzuki, T.; Youjun, Y.; Sugiura, Y. Biochemistry 2002, 41, 7925.] with NIH-3T3 fibroblasts and HMEC (human microvascular endothelial cells) and a Zeiss LSM 510 confocal microscope. […] [Futaki, S.; Nakase, I.; Suzuki, T.; Youjun, Y.; Sugiura, Y. Biochemistry 2002, 41, 7925; Vivès, E.; Brodin, P.; Lebleu, B. J. Biol. Chem. 1997, 272, 16010.] Furthermore, the extent of internalization increased in an incubation time-dependent manner, and it was observed that after just 10 min, the fluorescence intensity of cells treated with FD-2 was near saturation. […] L. Org. Lett. 2005, 7, 4815.] but also regulate the subcellular localization of the molecule and its putative cargo. […] Therefore, the dendrimer with a hexyl spacer crosses the cell membrane faster than the molecule with an ethyl chain. On the other hand, the localization patterns can also be controlled by the length of the spacer. […]

fluorescein isothiocyanate [free FITC]
fluorescence of cells in control experiments: no
